# Where a name gives a salt, the structure may show the parent alone.
# What was measured:
# abcC9 = assay: DT1 microarray drug screening, drug-treated HepG2: abcC9; format: cell-based, human; details: HepG2, doxorubicin HCl 25 nM, standard 11
# Method: (§1) The labelled cDNA target preparation was thawed and the 150 μl added to 850 ul hybridisation buffer (500 mM sodium Phosphate pH 6.0, 1% SDS, 1% BSA, 1 mM EDTA) in a 1.5 ml microtube and heated at 95° C. for 10 min.
# abcC1 = assay: DT1 microarray drug screening, drug-treated HepG2: abcC1; details: HepG2, doxorubicin HCl 25 nM, standard 11
# abcC2 = assay: DT1 microarray drug screening, drug-treated HepG2: abcC2; format: cell-based, human; details: HepG2, doxorubicin HCl 25 nM, standard 11
# Method: as §1
# abcB11 = assay: DT1 microarray drug screening, drug-treated HepG2: abcB11; format: cell-based, human; details: HepG2, doxorubicin HCl 25 nM, standard 11
# Method: as §1
# abcB4 = assay: DT1 microarray drug screening, drug-treated HepG2: abcB4; format: cell-based, human; details: HepG2, doxorubicin HCl 25 nM, standard 11
# Method: as §1
# abcA2 = assay: DT1 microarray drug screening, drug-treated HepG2: abcA2; format: cell-based, human; details: HepG2, doxorubicin HCl 25 nM, standard 11
# Method: as §1
# abcC13 = assay: DT1 microarray drug screening, drug-treated HepG2: abcC13; format: cell-based, human; details: HepG2, doxorubicin HCl 25 nM, standard 11
# Method: as §1
# abcA12 = assay: DT1 microarray drug screening, drug-treated HepG2: abcA12; format: cell-based, human; details: HepG2, doxorubicin HCl 25 nM, standard 11
# Method: as §1
# abcB7 = assay: DT1 microarray drug screening, drug-treated HepG2: abcB7; format: cell-based, human; details: HepG2, doxorubicin HCl 25 nM, standard 11
# Method: as §1
# abcA1 = assay: DT1 microarray drug screening, drug-treated HepG2: abcA1; format: cell-based, human; details: HepG2, doxorubicin HCl 25 nM, standard 11
# Method: as §1
# abcC8 = assay: DT1 microarray drug screening, drug-treated HepG2: abcC8; format: cell-based, human; details: HepG2, doxorubicin HCl 25 nM, standard 11
# Method: as §1
# abcA3 = assay: DT1 microarray drug screening, drug-treated HepG2: abcA3; format: cell-based, human; details: HepG2, doxorubicin HCl 25 nM, standard 11
# Method: as §1
# abcA8 = assay: DT1 microarray drug screening, drug-treated HepG2: abcA8; format: cell-based, human; details: HepG2, doxorubicin HCl 25 nM, standard 11
# Method: as §1
# abcB1 = assay: DT1 microarray drug screening, drug-treated HepG2: abcB1; format: cell-based, human; details: HepG2, doxorubicin HCl 25 nM, standard 11
# Method: as §1
# abcE1 = assay: DT1 microarray drug screening, drug-treated HepG2: abcE1; format: cell-based, human; details: HepG2, doxorubicin HCl 25 nM, standard 11
# Method: as §1
# abcA7 = assay: DT1 microarray drug screening, drug-treated HepG2: abcA7; format: cell-based, human; details: HepG2, doxorubicin HCl 25 nM, standard 11
# Method: as §1
# abcC4 = assay: DT1 microarray drug screening, drug-treated HepG2: abcC4; format: cell-based, human; details: HepG2, doxorubicin HCl 25 nM, standard 11
# Method: as §1
# abcB9 = assay: DT1 microarray drug screening, drug-treated HepG2: abcB9; format: cell-based, human; details: HepG2, doxorubicin HCl 25 nM, standard 11
# Method: as §1
# abcB2 = assay: DT1 microarray drug screening, drug-treated HepG2: abcB2; format: cell-based, human; details: HepG2, doxorubicin HCl 25 nM, standard 11
# Method: as §1
# abcA5 = assay: DT1 microarray drug screening, drug-treated HepG2: abcA5; format: cell-based, human; details: HepG2, doxorubicin HCl 25 nM, standard 11
# Method: as §1
# abcG4 = assay: DT1 microarray drug screening, drug-treated HepG2: abcG4; format: cell-based, human; details: HepG2, doxorubicin HCl 25 nM, standard 11
# Method: as §1
# abcB3 = assay: DT1 microarray drug screening, drug-treated HepG2: abcB3; format: cell-based, human; details: HepG2, doxorubicin HCl 25 nM, standard 11
# Method: as §1
# abcC10 = assay: DT1 microarray drug screening, drug-treated HepG2: abcC10; format: cell-based, human; details: HepG2, doxorubicin HCl 25 nM, standard 11
# Method: as §1
# abcC7 = assay: DT1 microarray drug screening, drug-treated HepG2: abcC7; format: cell-based, human; details: HepG2, doxorubicin HCl 25 nM, 2 h, standard 11
# Method: as §1
compound,measurement,setting,value
"COc1cccc2c1C(=O)c1c(O)c3c(c(O)c1C2=O)C[C@@](O)(C(=O)CO)C[C@@H]3O[C@H]1C[C@H](N)[C@H](O)[C@H](C)O1 [dox, doxorubicin HCl]",relative level of abcC9 gene expression,abcC9; 2 h,5.598
same,relative level of abcC9 gene expression,abcC9; 4 h,3.678
same,relative level of abcC9 gene expression,abcC9; 8 h,3.982
same,relative level of abcC1 gene expression,abcC1; 2 h,7.005
same,relative level of abcC1 gene expression,abcC1; 4 h,4.767
same,relative level of abcC1 gene expression,abcC1; 8 h,5.056
same,relative level of abcC2 gene expression,abcC2; 2 h,0.6141
same,relative level of abcC2 gene expression,abcC2; 4 h,0.3603
same,relative level of abcC2 gene expression,abcC2; 8 h,0.3548
same,relative level of abcB11 gene expression,abcB11; 2 h,5.31
same,relative level of abcB11 gene expression,abcB11; 4 h,3.404
same,relative level of abcB11 gene expression,abcB11; 8 h,3.888
same,relative level of abcB4 gene expression,abcB4; 2 h,9.148
same,relative level of abcB4 gene expression,abcB4; 4 h,5.624
same,relative level of abcB4 gene expression,abcB4; 8 h,6.417
same,relative level of abcA2 gene expression,abcA2; 2 h,6.224
same,relative level of abcA2 gene expression,abcA2; 4 h,2.947
same,relative level of abcA2 gene expression,abcA2; 8 h,4.022
same,relative level of abcC13 gene expression,abcC13; 2 h,3.203
same,relative level of abcC13 gene expression,abcC13; 4 h,2.548
same,relative level of abcC13 gene expression,abcC13; 8 h,2.593
same,relative level of abcA12 gene expression,abcA12; 2 h,5.829
same,relative level of abcA12 gene expression,abcA12; 4 h,3.419
same,relative level of abcA12 gene expression,abcA12; 8 h,4.195
same,relative level of abcB7 gene expression,abcB7; 2 h,0.2622
same,relative level of abcB7 gene expression,abcB7; 4 h,0.1619
same,relative level of abcB7 gene expression,abcB7; 8 h,0.1766
same,relative level of abcA1 gene expression,abcA1; 2 h,3.053
same,relative level of abcA1 gene expression,abcA1; 4 h,1.866
same,relative level of abcA1 gene expression,abcA1; 8 h,2.346
same,relative level of abcC8 gene expression,abcC8; 2 h,0.3229
same,relative level of abcC8 gene expression,abcC8; 4 h,0.2437
same,relative level of abcC8 gene expression,abcC8; 8 h,0.2255
same,relative level of abcA3 gene expression,abcA3; 2 h,8.071
same,relative level of abcA3 gene expression,abcA3; 4 h,4.291
same,relative level of abcA3 gene expression,abcA3; 8 h,5.179
same,relative level of abcA8 gene expression,abcA8; 2 h,3.036
same,relative level of abcA8 gene expression,abcA8; 4 h,1.786
same,relative level of abcA8 gene expression,abcA8; 8 h,2.174
same,relative level of abcB1 gene expression,abcB1; 2 h,6.735
same,relative level of abcB1 gene expression,abcB1; 4 h,3.865
same,relative level of abcB1 gene expression,abcB1; 8 h,4.759
same,relative level of abcE1 gene expression,abcE1; 2 h,4.155
same,relative level of abcE1 gene expression,abcE1; 4 h,2.794
same,relative level of abcE1 gene expression,abcE1; 8 h,3.088
same,relative level of abcA7 gene expression,abcA7; 2 h,1.842
same,relative level of abcA7 gene expression,abcA7; 4 h,0.933
same,relative level of abcA7 gene expression,abcA7; 8 h,0.9351
same,relative level of abcC4 gene expression,abcC4; 2 h,2.612
same,relative level of abcC4 gene expression,abcC4; 4 h,2.09
same,relative level of abcC4 gene expression,abcC4; 8 h,2.286
same,relative level of abcB9 gene expression,abcB9; 2 h,8.388
same,relative level of abcB9 gene expression,abcB9; 4 h,4.897
same,relative level of abcB9 gene expression,abcB9; 8 h,5.523
same,relative level of abcB2 gene expression,abcB2; 2 h,5.067
same,relative level of abcB2 gene expression,abcB2; 4 h,3.715
same,relative level of abcB2 gene expression,abcB2; 8 h,4.008
same,relative level of abcA5 gene expression,abcA5; 2 h,3.302
same,relative level of abcA5 gene expression,abcA5; 4 h,2.021
same,relative level of abcA5 gene expression,abcA5; 8 h,2.451
same,relative level of abcG4 gene expression,abcG4; 2 h,9.59
same,relative level of abcG4 gene expression,abcG4; 4 h,5.309
same,relative level of abcG4 gene expression,abcG4; 8 h,6.271
same,relative level of abcB3 gene expression,abcB3; 2 h,6.838
same,relative level of abcB3 gene expression,abcB3; 4 h,4.325
same,relative level of abcB3 gene expression,abcB3; 8 h,4.813
same,relative level of abcC10 gene expression,abcC10; 2 h,5.151
same,relative level of abcC10 gene expression,abcC10; 4 h,3.335
same,relative level of abcC10 gene expression,abcC10; 8 h,3.633
same,relative level of abcC7 gene expression,abcC7,7.481

# — patent US20070026408A1, “Materials and methods for analysis of atp-binding cassette transporter gene expression” (priority 2003, published 2007)
